Measured values published in patent US10900927B2, “Graphene field effect transistors for detection of ions” (UNIVERSITY OF SOUTH CAROLINA, priority 2018, dated 2021).

Legend:
[1] = tested on: Ca2+-activated non-selective cation (NSC) channels on the T84 cells; assay: K+ efflux of T84 cells activated with A23187, measured with the GISFET; type: cell-based, human; design: dose or concentration left out as unconfirmed; conditions: T84 cells in normal saline solution
Description: In Example 2, GISFETs as contemplated by the present invention were fabricated as described in Example 1 and were then used to measure the K^+ efflux of human colonic epithelial cells. FIG. 9 is a schematic illustrating the use of the graphene ion sensitive field effect transistor (GISFET) of the present invention to determine the K^+ efflux from cells.
Specifically, human colonic T84 epithelial cells were used to investigate performance of the GISFET of the present invention. The Ca^2+-activated non-selective cation (NSC) channels on the T84 cells were activated with Ca^2+ ionophore A23187 ([…]), and then the corresponding K^+ efflux was detected and quantified by measuring the extracellular K+ ion concentration.
First, and referring to FIG. 9, cells 150 were plated on 25 millimeter diameter graphene-coated glass coverslips 148 and placed underneath of a specially designed mold 146 in a well plate 144. […]
Referring now to FIG. 10, after about 2 minutes of stabilization of the GISFET 101 in the buffer solution 152 in the well plate 144, the A23187 activating chemical was added to the well plate 144, which caused a consistent increase in current for about 20 minutes thereafter. […] By calculating the K^+ concentration based on the calibration data, the K^+ concentration could then be determined to be about 50 uM. […]

[2] = K+ versus Na+; cited from earlier work

Compound | duration of consistent increase in GISFET current after addition [1] | extracellular K+ concentration from K+ efflux after activation ([1]; calculated from GISFET calibration data) | selectivity to K+ ions over Na+ ions (weaker valinomycin-Na+ complex) [2]
CNc1ccc2oc(C[C@H]3O[C@@]4(CC[C@H]3C)O[C@H]([C@H](C)C(=O)c3ccc[nH]3)[C@H](C)C[C@H]4C)nc2c1C(=O)O [A23187] | about 20 minutes | about 50 uM | 
CC(C)[C@@H]1NC(=O)[C@H](C)OC(=O)[C@@H](C(C)C)NC(=O)[C@@H](C(C)C)OC(=O)[C@H](C(C)C)NC(=O)[C@H](C)OC(=O)[C@@H](C(C)C)NC(=O)[C@@H](C(C)C)OC(=O)[C@H](C(C)C)NC(=O)[C@H](C)OC(=O)[C@@H](C(C)C)NC(=O)[C@@H](C(C)C)OC1=O [valinomycin] |  |  | 10,000 fold
